Tests used:
[1] = target: T1, Human HDAC7 (Homo sapiens, UniProt Q8WUI4); experiment: HDAC7 biochemical assay, class IIa-specific substrate; conditions: read-out: HDAC Isoform IC50 (nM) 7
T1 construct: (a.a. 518-end) with N-terminal GST tag; GST (N); host or cells: baculovirus expression system
T1 sequence (Q8WUI4 518-952 limits assumed): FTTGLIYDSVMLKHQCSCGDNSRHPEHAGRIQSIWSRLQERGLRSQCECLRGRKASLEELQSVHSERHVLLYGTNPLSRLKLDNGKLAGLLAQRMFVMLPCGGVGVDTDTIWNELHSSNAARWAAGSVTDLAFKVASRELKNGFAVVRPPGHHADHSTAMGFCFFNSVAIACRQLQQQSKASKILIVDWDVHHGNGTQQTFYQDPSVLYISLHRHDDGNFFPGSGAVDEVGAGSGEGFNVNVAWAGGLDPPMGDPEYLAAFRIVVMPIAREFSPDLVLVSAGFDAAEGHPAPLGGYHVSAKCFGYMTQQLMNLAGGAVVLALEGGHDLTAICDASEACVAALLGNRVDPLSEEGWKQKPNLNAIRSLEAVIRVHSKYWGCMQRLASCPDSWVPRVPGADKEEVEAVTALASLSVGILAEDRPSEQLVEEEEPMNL
How it was run: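 GST-tagged HDAC7 (a.a. 518-end, baculovirus-expressed) at 0.001 ng/ul with 50 μM Boc-Lys(trifluoroacetyl)-AMC substrate, 30 min at room temperature in pH 8.0 Tris buffer with BSA, 1% DMSO final. Developer then releases AMC; fluorescence read at 360/460 nm.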

[2] = target: T2, Human HDAC8 (Homo sapiens, UniProt Q9BY41); experiment: HDAC8 biochemical assay, AMC-labeled peptide substrate; conditions: read-out: HDAC Isoform IC50 (nM) 8
T2 construct: full length with C-terminal His tag, MW=42.6 kDa; His (C); host or cells: baculovirus expression system
T2 sequence (Q9BY41 1-377): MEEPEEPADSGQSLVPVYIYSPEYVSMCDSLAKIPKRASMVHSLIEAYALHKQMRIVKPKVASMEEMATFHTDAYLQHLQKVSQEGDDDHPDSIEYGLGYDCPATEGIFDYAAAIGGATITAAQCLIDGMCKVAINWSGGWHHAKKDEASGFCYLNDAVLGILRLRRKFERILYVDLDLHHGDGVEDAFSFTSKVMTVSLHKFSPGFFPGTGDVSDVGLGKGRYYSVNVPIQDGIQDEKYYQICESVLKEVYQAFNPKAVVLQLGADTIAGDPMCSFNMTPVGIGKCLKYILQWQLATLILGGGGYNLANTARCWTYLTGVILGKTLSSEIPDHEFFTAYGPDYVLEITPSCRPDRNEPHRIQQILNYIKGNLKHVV
Procedure: (§1) Activity against all zinc-dependent HDACs 1 to 11 was assessed by using an acetylated AMC-labeled peptide substrate. The substrate RHKK(Ac)AMC was used for HDAC1, HDAC2, HDAC3, HDAC6 and HDAC10; the substrate used for HDAC8 was RHK(Ac)K(Ac)AMC. Activity against the class IIa HDACs (HDAC4, 5, 7, 9) and HDAC11 was determined using a class IIa-specific substrate, BOC-Lys(trifluoroacetyl)-AMC (“Trifluoroacetyl Lysine”; see Lahm et al, 2007, PNAS, 104, 17335-17340). All assays were based on the AMC-labeled substrate and developer combination.
(§2) The protocol involved a two-step reaction: first, the substrate with the acetylated lysine side chain is incubated with a sample containing HDAC activity, to produce the deacetylated products, which are then digested in the second step by the addition of developer to produce the fluorescent signal proportional to the amount of deacetylated substrates.
Human HDAC8 (GenBankAccession No. NM_018486), full length with C-terminal His tag, MW=42.6 kDa, expressed in a baculovirus expression system.
(§3) Assay Buffer: 50 mM Tris-HCl, pH8.0, 137 mM NaCl, 2.7 mM KCl, 1 mM MgC2. Before use, 1 mg/mL BSA and DMSO are added.
HDAC8: 1 ng/ul HDAC8 and 100 µM HDAC8 substrate are in the reaction buffer with 1% DMSO final. Incubate for 2 hours at 30° C.
(§4) Stage 1: Deacetylation of substrate by incubation of HDAC enzymes with compounds
(§5) Stage 2: Development by addition of Developer to digest the deacetylated substrate, and generate the fluorescent colour; Detection: 360/460 Ex/Em

[3] = target: T3, Human HDAC11 (Homo sapiens, UniProt Q96DB2); experiment: HDAC11 biochemical assay, class IIa-specific substrate; conditions: read-out: HDAC Isoform IC50 (nM) 11
T3 construct: Human HDAC11 (full length); His (N); host or cells: baculovirus expression system
T3 sequence (Q96DB2 1-347): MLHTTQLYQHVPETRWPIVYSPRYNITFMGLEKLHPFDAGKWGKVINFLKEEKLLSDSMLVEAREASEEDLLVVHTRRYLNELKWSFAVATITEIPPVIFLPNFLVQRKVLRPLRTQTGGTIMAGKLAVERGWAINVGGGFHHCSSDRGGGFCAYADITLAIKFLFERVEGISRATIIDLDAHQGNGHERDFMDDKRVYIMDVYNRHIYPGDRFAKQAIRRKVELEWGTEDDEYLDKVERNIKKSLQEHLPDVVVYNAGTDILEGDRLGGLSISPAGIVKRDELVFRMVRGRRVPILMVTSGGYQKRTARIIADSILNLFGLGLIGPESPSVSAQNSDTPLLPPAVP
Procedure: as §1, §2
Human HDAC11 (full length) (GenBank Accession No. NM_024827) with N-terminal His tag, MW=42.9 kDa, expressed in baculovirus expression system.
as §3
HDAC11: 5 ng/ul HDAC11 and 50 μMHDAC substrate are in the reaction buffer with 1% DMSO final. Incubate for 30 minutes at 30° C.
as §4, §5

Row | SMILES | IC50 [1] | IC50 [2] | IC50 [3]
1 | OC1(c2cnnc(N(Cc3ccc(-c4noc(C(F)(F)F)n4)s3)c3cnccn3)c2)COC1 [Example GW, 3-{6-[(Pyrazin-2-yl)({5-[5-(trifluoromethyl)-1,2,4-oxadiazol-3-yl]thiophen-2-yl}methyl)amino]pyridazin-4-yl}oxetan-3-ol] | ≤ 1000 nM | ≤ 10000 nM | > 10000 nM
2 | FC(F)(F)c1cnnc(N(Cc2ccc(-c3noc(C(F)(F)F)n3)s2)c2cc(C(F)(F)F)cnn2)c1 [Example EU, 5-(Trifluoromethyl)-N-({5-[5-(trifluoromethyl)-1,2,4-oxadiazol-3-yl]thiophen-2-yl}methyl)-N-[5-(trifluoromethyl)pyridazin-3-yl]pyridazin-3-amine] | ≤ 10000 nM | – | –
3 | NC(=O)c1cnnc(N(Cc2ccc(-c3noc(C(F)(F)F)n3)s2)c2cnccn2)c1 [Example DX, 6-[(Pyrazin-2-yl)({5-[5-(trifluoromethyl)-1,2,4-oxadiazol-3-yl]thiophen-2-yl}methyl)amino]pyridazine-4-carboxamide] | ≤ 500 nM | ≤ 10000 nM | > 10000 nM
4 | O=C(c1cnnc(N(Cc2ccc(-c3noc(C(F)(F)F)n3)s2)c2cnccn2)c1)N1CCC12COC2 [Example GF, 5-{6-Oxa-1-azaspiro[3.3]heptane-1-carbonyl}-N-(pyrazin-2-yl)-N-({5-[5-(trifluoromethyl)-1,2,4-oxadiazol-3-yl]thiophen-2-yl}methyl)pyridazin-3-amine] | ≤ 10000 nM | ≤ 10000 nM | > 10000 nM
5 | FC(F)(F)c1cnc(N(Cc2ccc(-c3noc(C(F)(F)F)n3)s2)c2cnccn2)cn1 [Example BK, N-(Pyrazin-2-yl)-5-(trifluoromethyl)-N-({5-[5-(trifluoromethyl)-1,2,4-oxadiazol-3-yl]thiophen-2-yl}methyl)pyrazin-2-amine] | ≤ 10000 nM | ≤ 10000 nM | > 10000 nM
6 | CC(=O)Nc1cnnc(N(Cc2ccc(-c3noc(C(F)(F)F)n3)s2)c2cnccn2)c1 [Example FM, N-{6-[(Pyrazin-2-yl)({5-[5-(trifluoromethyl)-1,2,4-oxadiazol-3-yl]thiophen-2-yl}methyl)amino]pyridazin-4-yl}acetamide] | ≤ 1000 nM | ≤ 10000 nM | > 10000 nM
7 | CNC(=O)c1cnnc(N(Cc2ccc(-c3noc(C(F)(F)F)n3)s2)c2cnccn2)c1 [Example DY, N-Methyl-6-[(pyrazin-2-yl)({5-[5-(trifluoromethyl)-1,2,4-oxadiazol-3-yl]thiophen-2-yl}methyl)amino]pyridazine-4-carboxamide] | ≤ 500 nM | ≤ 10000 nM | > 10000 nM
8 | COC1CN(Cc2ccnc(N(Cc3ccc(-c4noc(C(F)(F)F)n4)s3)c3cnccn3)c2)C1 [Example GH, N-{4-[(3-Methoxyazetidin-1-yl)methyl]pyridin-2-yl}-N-({5-[5-(trifluoromethyl)-1,2,4-oxadiazol-3-yl]thiophen-2-yl}methyl)pyrazin-2-amine] | ≤ 10000 nM | ≤ 10000 nM | > 10000 nM
9 | O=C(c1ccc(N(Cc2ccc(-c3noc(C(F)(F)F)n3)s2)c2cnccn2)nn1)N1C[C@@H]2C[C@H]1C[S@@+]2[O-] [Example FR, (1S,2R,4S)-5-{6-[(Pyrazin-2-yl)({5-[5-(trifluoromethyl)-1,2,4-oxadiazol-3-yl]thiophen-2-yl}methyl)amino]pyridazine-3-carbonyl}-2-thia-5-azabicyclo[2.2.1]heptan-2-ium-2-olate] | ≤ 500 nM | ≤ 10000 nM | > 10000 nM
10 | Fc1ccnc(N(Cc2ccc(-c3noc(C(F)(F)F)n3)s2)c2cnccn2)c1 [Example AG, N-(4-Fluoropyridin-2-yl)-N-({5-[5-(trifluoromethyl)-1,2,4-oxadiazol-3-yl]thiophen-2-yl}methyl)pyrazin-2-amine] | ≤ 10000 nM | ≤ 10000 nM | > 10000 nM
11 | O=C(c1cnnc(N(Cc2ccc(-c3noc(C(F)(F)F)n3)s2)c2cnccn2)c1)N1CC(O)(C(F)(F)F)C1 [Example GD, 1-{6-[(Pyrazin-2-yl)({5-[5-(trifluoromethyl)-1,2,4-oxadiazol-3-yl]thiophen-2-yl}methyl)amino]pyridazine-4-carbonyl}-3-(trifluoromethyl)azetidin-3-ol] | ≤ 1000 nM | ≤ 10000 nM | > 10000 nM
12 | Cc1nccnc1N(Cc1ccc(-c2noc(C(F)(F)F)n2)s1)c1cnccn1 [Example BE, 3-Methyl-N-(pyrazin-2-yl)-N-({5-[5-(trifluoromethyl)-1,2,4-oxadiazol-3-yl]thiophen-2-yl}methyl)pyrazin-2-amine] | ≤ 500 nM | ≤ 10000 nM | > 10000 nM
13 | COC1CN(C(=O)c2ccc(N(Cc3ccc(-c4noc(C(F)(F)F)n4)s3)c3cnccn3)nn2)C1 [Example DR, 6-(3-Methoxyazetidine-1-carbonyl)-N-(pyrazin-2-yl)-N-({5-[5-(trifluoromethyl)-1,2,4-oxadiazol-3-yl]thiophen-2-yl}methyl)pyridazin-3-amine] | ≤ 500 nM | ≤ 10000 nM | > 10000 nM
14 | O=C(c1ccc(N(Cc2ccc(-c3noc(C(F)(F)F)n3)s2)c2cnccn2)nn1)N1CCC2(COC2)C1 [Example FJ, 6-{2-Oxa-6-azaspiro[3.4]octane-6-carbonyl}-N-(pyrazin-2-yl)-N-({5-[5-(trifluoromethyl)-1,2,4-oxadiazol-3-yl]thiophen-2-yl}methyl)pyridazin-3-amine] | ≤ 500 nM | ≤ 10000 nM | > 10000 nM
15 | COc1cncc(N(Cc2ccc(-c3noc(C(F)(F)F)n3)s2)c2cnccn2)n1 [Example BQ, 6-Methoxy-N-(pyrazin-2-yl)-N-({5-[5-(trifluoromethyl)-1,2,4-oxadiazol-3-yl]thiophen-2-yl}methyl)pyrazin-2-amine] | ≤ 10000 nM | ≤ 10000 nM | > 10000 nM
16 | FC(F)(F)c1cnnc(N(Cc2ccc(-c3noc(C(F)(F)F)n3)s2)c2cccnn2)c1 [Example ER, N-(Pyridazin-3-yl)-5-(trifluoromethyl)-N-({5-[5-(trifluoromethyl)-1,2,4-oxadiazol-3-yl]thiophen-2-yl}methyl)pyridazin-3-amine] | ≤ 10000 nM | – | –
17 | COc1cncc(N(Cc2ccc(-c3noc(C(F)(F)F)n3)s2)c2cc(C(F)(F)F)cnn2)n1 [Example EN, N-(6-Methoxypyrazin-2-yl)-5-(trifluoromethyl)-N-({5-[5-(trifluoromethyl)-1,2,4-oxadiazol-3-yl]thiophen-2-yl}methyl)pyridazin-3-amine] | ≤ 10000 nM | – | –

Source: patent publication US20210038607A1, “OXADIAZOLYLTHIOPHENE DERIVATIVES USEFUL AS HISTONE DEACETYLASE INHIBITORS” (Karus Therapeutics Limited, priority 2018, published 2021)
